The text below walks through data of ChEMBL document CHEMBL1149290, “Discovery of tetralin carboxamide growth hormone secretagogue receptor antagonists via scaffold manipulation” (J Med Chem, 2004).

A short description of series [1]: Oral bioavailability in rat. The series is classed as ADME, organism-based. As to conditions: in vivo.
Series [2] can be described thus: Inhibition of dopaminergic receptor. Also noted: species or system Homo sapiens.
The target in series [3] is Muscarinic acetylcholine receptor. Put plainly: Inhibition of muscarinic receptor. The series is classed as protein assay, Homo sapiens.
Series [4] in a line: Inhibition of adrenergic receptor. Details: species or system Homo sapiens.
Series [5] deals with Voltage-gated inwardly rectifying potassium channel KCNH2 (Homo sapiens, UniProt Q12809). Put plainly: Inhibition of hERG receptor. It is filed as toxicity.
Chain of Voltage-gated inwardly rectifying potassium channel KCNH2 (Q12809 whole entry): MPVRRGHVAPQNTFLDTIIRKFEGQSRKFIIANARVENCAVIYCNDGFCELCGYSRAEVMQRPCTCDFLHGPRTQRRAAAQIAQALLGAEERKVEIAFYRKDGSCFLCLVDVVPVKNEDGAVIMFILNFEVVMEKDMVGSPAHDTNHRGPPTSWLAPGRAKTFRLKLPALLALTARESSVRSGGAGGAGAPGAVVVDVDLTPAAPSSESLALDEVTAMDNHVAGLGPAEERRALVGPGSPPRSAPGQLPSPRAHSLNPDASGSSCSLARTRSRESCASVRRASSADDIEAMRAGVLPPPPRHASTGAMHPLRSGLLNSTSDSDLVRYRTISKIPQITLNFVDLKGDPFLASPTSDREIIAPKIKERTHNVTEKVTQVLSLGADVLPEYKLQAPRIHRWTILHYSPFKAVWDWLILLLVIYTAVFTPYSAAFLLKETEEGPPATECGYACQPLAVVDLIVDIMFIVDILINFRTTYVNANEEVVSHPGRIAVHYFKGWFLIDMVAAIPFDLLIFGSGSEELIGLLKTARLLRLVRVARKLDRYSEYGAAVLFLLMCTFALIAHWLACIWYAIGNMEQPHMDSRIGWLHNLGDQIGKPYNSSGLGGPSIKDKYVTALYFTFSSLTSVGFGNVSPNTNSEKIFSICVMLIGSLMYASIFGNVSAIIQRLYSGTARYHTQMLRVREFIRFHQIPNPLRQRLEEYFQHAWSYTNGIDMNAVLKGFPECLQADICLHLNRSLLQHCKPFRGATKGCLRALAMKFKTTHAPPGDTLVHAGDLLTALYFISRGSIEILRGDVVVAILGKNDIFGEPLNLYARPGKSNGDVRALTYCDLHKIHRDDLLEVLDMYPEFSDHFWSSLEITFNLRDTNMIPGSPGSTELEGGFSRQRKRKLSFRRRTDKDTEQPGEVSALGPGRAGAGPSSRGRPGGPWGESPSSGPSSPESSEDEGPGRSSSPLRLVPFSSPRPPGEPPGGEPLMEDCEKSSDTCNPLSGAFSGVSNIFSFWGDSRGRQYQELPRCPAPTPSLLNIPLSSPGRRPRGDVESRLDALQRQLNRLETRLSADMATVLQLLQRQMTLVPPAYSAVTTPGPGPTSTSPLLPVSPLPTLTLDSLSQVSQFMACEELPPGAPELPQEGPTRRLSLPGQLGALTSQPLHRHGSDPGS
Series [6] can be described thus: Clearance in rat. It is filed as ADME, organism-based. The note with it: in vivo.
The nature of series [7]: Inhibition of histaminergic receptor.
The target in series [8] is Growth hormone secretagogue receptor type 1 (Homo sapiens, UniProt Q92847). Put plainly: Binding affinity to GHSR.
Chain of Growth hormone secretagogue receptor type 1 (Q92847 whole entry): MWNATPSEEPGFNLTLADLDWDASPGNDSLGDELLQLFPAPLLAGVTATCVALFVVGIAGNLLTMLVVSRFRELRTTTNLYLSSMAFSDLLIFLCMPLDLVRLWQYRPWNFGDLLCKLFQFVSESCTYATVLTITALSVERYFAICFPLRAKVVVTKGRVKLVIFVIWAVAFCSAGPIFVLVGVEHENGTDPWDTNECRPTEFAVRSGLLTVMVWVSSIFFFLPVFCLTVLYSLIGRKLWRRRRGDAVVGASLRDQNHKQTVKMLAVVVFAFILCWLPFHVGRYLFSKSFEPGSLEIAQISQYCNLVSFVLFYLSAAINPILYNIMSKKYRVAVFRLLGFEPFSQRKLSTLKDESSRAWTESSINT

Each structure is given as a SMILES string.

As to `CCN(CC)c1ccc(NC(=O)C2(N(C)C(=O)OCC(C)C)CCc3cccc(OC)c3C2)cc1` (racemic), the bioavailability in series [1] was 19%. The 50% inhibitory concentration (IC50) in series [2] is > 33 µM; in series [3] it was > 33 µM; in series [4], > 33 µM; in series [5], 6.1 µM; in series [7], > 33 µM. The compound further gave a clearance in series [6] of 21.7 mL/min/kg.

Regarding `CCN(CC)c1ccc(NC(=O)C2(NC(=O)OCC(C)C)CCc3ccccc3C2)cc1` (racemic), the IC50 in series [8] was 0.011 µM (antagonist).

Take `CCN(CC)c1ccc(NC(=O)c2c(-c3c(Cl)cccc3Cl)noc2C)cc1`: the clearance in series [6] is 61.7 mL/min/kg.

For `CCN(CC)c1ccc(NC(=O)C2CCc3ccccc3C2)cc1` (racemic), in series [8], the IC50 is recorded as 2.7 µM (antagonist).

Consider `CCN(CC)c1ccc(NC(=O)C2(NC(=O)OCC(C)C)CCc3cccc(Cl)c3C2)cc1` (racemic), for which the bioavailability in series [1] came out at 3.8%. Also, in series [8], the IC50 is 0.002 µM (antagonist).

For the compound `CCN(CC)c1ccc(NC(=O)C2(NC(=O)OC(C)(C)C)CCc3ccccc3C2)cc1` (racemic), in series [8], the IC50 is 0.12 µM (antagonist).

By bioavailability is commonly meant dose-corrected exposure relative to a reference, in per cent. High values mean good availability, low ones poor availability. As a reminder, the IC50 is the midpoint of a concentration-inhibition curve. A higher IC50 goes with weaker potency. In general, clearance refers to the volume of plasma or blood freed of the substance per unit of time. Higher therefore signals efficient removal.
